This is an account of results in patent US10611740B2, “Aryl dihydro-2H-benzo[b][1,4]oxazine sulfonamide and related compounds for use as agonists of RORγ and the treatment of disease” (Lycera Corporation, priority 2015, dated 2020).

Experiment [1] deals with T1, RORγ-LBD (Homo sapiens, UniProt P51449).
T1 construct: made in house; host or cells: SF9 cells (baculovirus)
T1 sequence (P51449 269-508 limits assumed): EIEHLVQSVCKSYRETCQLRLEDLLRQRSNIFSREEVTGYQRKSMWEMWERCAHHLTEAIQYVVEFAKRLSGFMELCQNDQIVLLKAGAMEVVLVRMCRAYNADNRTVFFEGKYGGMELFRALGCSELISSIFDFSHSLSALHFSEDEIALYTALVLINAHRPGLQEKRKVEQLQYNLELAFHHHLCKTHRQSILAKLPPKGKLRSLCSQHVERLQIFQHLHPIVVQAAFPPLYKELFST
The experiment is described as follows: RORγ-Ligand Binding Domain (LBD) TR-FRET Assay.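 For TR-FRET Assay Max Response: 665/615 nm ratio relative to signal without ursolic acid or compound set at 100.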 The class given is biochemical. The method in brief:
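This TR-FRET coactivator assay pairs baculovirus-expressed His-RORγ-LBD (~3 nM final) with biotin-SRC1 LXXLL peptide at 200 nM final in pH 7.0 Tris/KCl/EDTA/DTT/BSA buffer.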
For orientation: Time-resolved FRET reads energy transfer from a long-lived donor to a nearby acceptor.

Experiment [2] deals with T2, Gal4-RORγ-LBD (Homo sapiens, UniProt P51449).
T2 construct: expressed in transfected cells; host or cells: HEK-293 cells (pcDNA3.1neo plasmid)
T2 sequence (P51449 269-508 limits assumed): T1 sequence (P51449 269-508 limits assumed)
Put plainly: Gal4-RORγ Luciferase Reporter Assay in HEK-293T Cells. It counts as cell-based. The note with it: HEK-293 cells. The method in brief: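 Luminescence read-out (One-Glo, 10 min RT) after overnight compound exposure at 37 °C in HEK-293 cells carrying Gal4-RORγ-LBD plus a Gal4-luciferase reporter, in the presence of 2 μM ursolic acid. Max Response is the upper plateau from a 4-parameter logistic fit, normalized to untreated signal = 100.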
In general terms: In a reporter assay the amount or activity of a reporter protein is the signal.

The mark [3] stands for this setting: luciferase reporter, with 2 μM ursolic acid.

Broadly, the EC50 is the concentration that produces a half-maximal response. Higher therefore signals lower potency in that assay.

A value given as a limit tells only on which side of the number the result lay.

On to `CS(=O)(=O)c1ccccc1-c1ccc2c(c1)N(S(=O)(=O)c1cccc(C(F)(F)F)c1)C[C@H](CCC(=O)O)O2` [Compound 2BI, (S)-3-(6-(2-(methylsulfonyl)-phenyl)-4-((3-(trifluoromethyl)-phenyl)sulfonyl)-3,4-dihydro-2H-benzo[b][1,4]oxazin-2-yl)propanoic acid], for which, in experiment [1], the EC50 fell in the range of 0.5 to 5 µM and the “TR-FRET Assay Max Response” value is “*** (The symbol “***” indicates a value in the range of greater than 150 to 200)”. Further, in experiment [2] (setting [3]), the EC50 lay within 0.5 to 5 µM and the “Gal4-RORγ Assay Max Response” value is recorded as “** (The symbol “**” indicates a value in the range of greater than 90 to 150)”.

Take `O=C(O)CNC(=O)CC[C@H]1CN(S(=O)(=O)c2cccc(C(F)(F)F)c2)c2cc(-c3cccc(C(F)(F)F)n3)ccc2O1` [Compound 23J, (S)-(3-(4-((3-(trifluoromethyl)-phenyl)sulfonyl)-6-(6-(trifluoromethyl)pyridin-2-yl)-3,4-dihydro-2H-benzo[b][1,4]oxazin-2-yl)propanoyl)glycine]: in experiment [1], the EC50 is below 0.5 µM and the “TR-FRET Assay Max Response” value is listed as “**** (The symbol “****” indicates a value greater than 200)”. Moreover, in experiment [2] (setting [3]), the EC50 lay within 5 to 10 µM and the “Gal4-RORγ Assay Max Response” value is “*** (The symbol “***” indicates a value in the range of greater than 150 to 200)”.

`O=c1[nH]c(OCCC[C@H]2CN(S(=O)(=O)c3cccc(C(F)(F)F)c3)c3cc(-c4cccc(C(F)(F)F)n4)ccc3O2)no1` [Compound 36C, (S)-3-(3-(4-((3-(trifluoro-methyl)phenyl)sulfonyl)-6-(6-(trifluoromethyl)-pyridin-2-yl)-3,4-dihydro-2H-benzo[b][1,4]oxazin-2-yl)propoxy)-1,2,4-oxadiazol-5(4H)-one]: in experiment [1], the EC50 is below 0.5 µM and the “TR-FRET Assay Max Response” value is “**** (The symbol “****” indicates a value greater than 200)”. In addition, in experiment [2] (setting [3]), the concentration giving a half-maximal response (EC50) is below 0.5 µM and the “Gal4-RORγ Assay Max Response” value is recorded as “** (The symbol “**” indicates a value in the range of greater than 90 to 150)”.

On to `O=C(O)CC[C@H]1CN(S(=O)(=O)c2cc(C(F)(F)F)cnc2OCCO)c2cc(-c3cccc(Cl)c3)ccc2O1` [Compound 6G], for which, in experiment [1], the EC50 is below 0.5 µM and the “TR-FRET Assay Max Response” value is “**** (The symbol “****” indicates a value greater than 200)”. In experiment [2] (setting [3]), the EC50 lay in the range of 0.5 to 5 µM and the “Gal4-RORγ Assay Max Response” value is on record as “** (The symbol “**” indicates a value in the range of greater than 90 to 150)”.

With `Cc1ccc(Cl)cc1-c1ccc2c(c1)N(S(=O)(=O)c1cccc(C(F)(F)F)c1)C[C@H](CC(C)(C)C(=O)O)O2` [Compound 32AR, (S)-3-(6-(5-chloro-2-methyl-phenyl)-4-((3-(trifluoromethyl)-phenyl)sulfonyl)-3,4-dihydro-2H-benzo[b][1,4]oxazin-2-yl)-2,2-dimethylpropanoic acid], in experiment [1], the EC50 was below 0.5 µM and the “TR-FRET Assay Max Response” value is “** (The symbol “**” indicates a value in the range of greater than 90 to 150)”. In addition, in experiment [2] (2 μM ursolic acid), the EC50 is below 0.5 µM and the “Gal4-RORγ Assay Max Response” value was “** (The symbol “**” indicates a value in the range of greater than 90 to 150)”.

In the case of `CC(C)c1cccc(S(=O)(=O)N2C[C@H](CNC(=O)C(C)(C)O)Oc3ccc(-c4cc(F)ccc4F)cc32)c1` [Compound 30K, (S)-N-((6-(2,5-difluorophenyl)-4-((3-isopropylphenyl)sulfonyl)-3,4-dihydro-2H-benzo[b][1,4]-oxazin-2-yl)methyl)-2-hydroxy-2-methylpropanamide], in experiment [1], the half-maximal effective concentration (EC50) is below 0.5 µM and the “TR-FRET Assay Max Response” value was “**** (The symbol “****” indicates a value greater than 200)”. For the same compound, in experiment [2] (setting [3]), the EC50 is below 0.5 µM and the “Gal4-RORγ Assay Max Response” value is reported as “* (The symbol “*” indicates a value in the range of 25 to 90)”.

Compound `COc1cccc(C#N)c1-c1ccc2c(c1)N(S(=O)(=O)c1cccc(C(F)(F)F)c1)C[C@H](CCC(=O)O)O2` [Compound 2BJ, (S)-3-(6-(2-cyano-6-methoxy-phenyl)-4-((3-(trifluoromethyl)-phenyl)sulfonyl)-3,4-dihydro-2H-benzo[b][1,4]oxazin-2-yl)propanoic acid] displayed an EC50 in experiment [1] above 10 µM. In addition, in experiment [2] (setting [3]), the EC50 is above 10 µM and the “Gal4-RORγ Assay Max Response” value is on record as “** (The symbol “**” indicates a value in the range of greater than 90 to 150)”.

For the compound `COc1cc(S(=O)(=O)N2C[C@H](CNC(=O)[C@@](C)(O)C(F)(F)F)Oc3ccc(-c4cccc(C(F)(F)F)n4)cc32)ccc1F` [Compound 30CC, (R)-3,3,3-trifluoro-N-(((S)-4-((4-fluoro-3-methoxyphenyl)-sulfonyl)-6-(6-(trifluoromethyl)-pyridin-2-yl)-3,4-dihydro-2H-benzo[b][1,4]oxazin-2-yl)methyl)-2-hydroxy-2-methylpropanamide], in experiment [1], the EC50 was below 0.5 µM and the “TR-FRET Assay Max Response” value is “*** (The symbol “***” indicates a value in the range of greater than 150 to 200)”. In experiment [2] (2 μM ursolic acid), the EC50 was below 0.5 µM and the “Gal4-RORγ Assay Max Response” value is given as “** (The symbol “**” indicates a value in the range of greater than 90 to 150)”.

On to `Cn1ccnc1-c1ccc2c(c1)N(S(=O)(=O)c1cccc(C(F)(F)F)c1)C[C@H](CCC(=O)O)O2` [Compound 4L, (S)-3-(6-(1-methyl-1H-imidazol-2-yl)-4-((3-(trifluoromethyl)-phenyl)sulfonyl)-3,4-dihydro-2H-benzo[b][1,4]oxazin-2-yl)propanoic acid], for which, in experiment [1], the EC50 was above 10 µM and the “TR-FRET Assay Max Response” value is recorded as “**** (The symbol “****” indicates a value greater than 200)”. Moreover, in experiment [2] (setting [3]), the EC50 is above 10 µM.

Consider `O=C(O)C1CCN(C(=O)CC[C@H]2CN(S(=O)(=O)c3cccc(C(F)(F)F)c3)c3cc(-c4cccc(Cl)c4)cc(F)c3O2)CC1` [Compound 9, (S)-1-(3-(6-(3-chlorophenyl)-8-fluoro-4-((3-(trifluoromethyl)phenyl)sulfonyl)-3,4-dihydro-2H-benzo[b][1,4]oxazin-2-yl)propanoyl)piperidine-4-carboxylic acid], for which, in experiment [1], the concentration giving a half-maximal response (EC50) was below 0.5 µM and the “TR-FRET Assay Max Response” value is recorded as “**** (The symbol “****” indicates a value greater than 200)”. Besides, in experiment [2] (setting [3]), the EC50 is below 0.5 µM and the “Gal4-RORγ Assay Max Response” value is recorded as “** (The symbol “**” indicates a value in the range of greater than 90 to 150)”.

In the case of `O=S(=O)(c1cccc(C(F)(F)F)c1)N1C[C@H](CC2(CO)COC2)Oc2ccc(-c3cc(F)cc(OC(F)F)c3)cc21` [Compound 49, (S)-(3-((6-(3-(difluoromethoxy)-5-fluorophenyl)-4-((3-(trifluoromethyl)phenyl)sulfonyl)-3,4-dihydro-2H-benzo[b][1,4]oxazin-2-yl)methyl)oxetan-3-yl)methanol], in experiment [1], the EC50 is below 0.5 µM and the “TR-FRET Assay Max Response” value is reported as “** (The symbol “**” indicates a value in the range of greater than 90 to 150)”. In experiment [2] (2 μM ursolic acid), the EC50 was below 0.5 µM and the “Gal4-RORγ Assay Max Response” value is “** (The symbol “**” indicates a value in the range of greater than 90 to 150)”.

In the case of `O=C(O)CC[C@H]1CN(S(=O)(=O)c2cccc(C(F)(F)F)c2)c2cc(-c3ccnc(C(F)(F)F)c3)ccc2O1` [Compound 2AA, (S)-3-(4-((3-(trifluoromethyl)-phenyl)sulfonyl)-6-(2-(trifluoromethyl)pyridin-4-yl)-3,4-dihydro-2H-benzo[b][1,4]oxazin-2-yl)propanoic acid], in experiment [1], the EC50 is below 0.5 µM and the “TR-FRET Assay Max Response” value was “**** (The symbol “****” indicates a value greater than 200)”. Moreover, in experiment [2] (setting [3]), the EC50 was above 10 µM.

Regarding `O=C(O)CCC[C@H]1CN(S(=O)(=O)c2cccc(C(F)(F)F)c2)c2cc(-c3cc(F)cc(F)c3Cl)ccc2O1` [Compound 21D, (S)-4-(6-(2-chloro-3,5-difluorophenyl)-4-((3-(trifluoromethyl)phenyl)sulfonyl)-3,4-dihydro-2H-benzo[b][1,4]-oxazin-2-yl)butanoic acid], in experiment [1], the concentration for a half-maximal effect (EC50) was below 0.5 µM and the “TR-FRET Assay Max Response” value is reported as “*** (The symbol “***” indicates a value in the range of greater than 150 to 200)”. Further, in experiment [2] (setting [3]), the concentration for a half-maximal effect (EC50) was below 0.5 µM and the “Gal4-RORγ Assay Max Response” value is on record as “*** (The symbol “***” indicates a value in the range of greater than 150 to 200)”.

With `O=C(O)CC[C@H]1CN(S(=O)(=O)c2cccc(C(F)(F)F)c2)c2cc(-c3ccccc3Cl)ccc2O1` [Compound 2A, (S)-3-(6-(2-chlorophenyl)-4-((3-(trifluoromethyl)phenyl)-sulfonyl)-3,4-dihydro-2H-benzo[b][1,4]oxazin-2-yl)propanoic acid], in experiment [1], the EC50 is below 0.5 µM and the “TR-FRET Assay Max Response” value is listed as “*** (The symbol “***” indicates a value in the range of greater than 150 to 200)”. Further, in experiment [2] (setting [3]), the EC50 was below 0.5 µM and the “Gal4-RORγ Assay Max Response” value is recorded as “** (The symbol “**” indicates a value in the range of greater than 90 to 150)”.
